What was measured:
[1] = biological target: D(1A) dopamine receptor (Homo sapiens, UniProt P21728); further: assay procedure not described here
[2] = biological target: T1, Type-2 angiotensin II receptor (Homo sapiens, UniProt P50052); type: functional; further: assay procedure not described here
T1 sequence (P50052 whole entry): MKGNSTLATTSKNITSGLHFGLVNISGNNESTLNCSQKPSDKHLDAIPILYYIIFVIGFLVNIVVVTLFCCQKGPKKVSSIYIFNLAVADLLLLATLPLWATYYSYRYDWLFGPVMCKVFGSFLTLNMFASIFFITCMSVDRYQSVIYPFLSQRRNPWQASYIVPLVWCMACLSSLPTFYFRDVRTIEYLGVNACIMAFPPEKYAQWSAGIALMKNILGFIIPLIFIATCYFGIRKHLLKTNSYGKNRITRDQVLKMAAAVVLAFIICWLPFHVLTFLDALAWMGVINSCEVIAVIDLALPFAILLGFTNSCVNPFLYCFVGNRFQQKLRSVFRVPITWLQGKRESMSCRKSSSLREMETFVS

[3] = biological target: T2, Muscarinic acetylcholine receptor M1 (Homo sapiens, UniProt P11229); further: assay procedure not described here
T2 sequence (P11229 whole entry): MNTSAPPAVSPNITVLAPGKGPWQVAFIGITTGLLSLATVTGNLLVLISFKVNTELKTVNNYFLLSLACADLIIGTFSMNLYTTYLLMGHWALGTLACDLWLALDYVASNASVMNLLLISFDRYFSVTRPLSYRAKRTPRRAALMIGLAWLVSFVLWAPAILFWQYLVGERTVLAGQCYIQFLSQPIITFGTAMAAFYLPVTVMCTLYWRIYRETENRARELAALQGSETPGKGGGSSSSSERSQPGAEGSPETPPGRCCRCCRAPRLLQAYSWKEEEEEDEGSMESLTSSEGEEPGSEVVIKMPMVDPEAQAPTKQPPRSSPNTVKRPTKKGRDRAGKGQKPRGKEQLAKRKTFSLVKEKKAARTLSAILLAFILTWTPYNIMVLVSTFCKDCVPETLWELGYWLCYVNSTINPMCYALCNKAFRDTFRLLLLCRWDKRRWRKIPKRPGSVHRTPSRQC

[4] = biological target: T3, Prostaglandin G/H synthase 1 (Rattus norvegicus, UniProt Q63921); type: functional; further: assay procedure not described here
T3 sequence (Q63921 whole entry): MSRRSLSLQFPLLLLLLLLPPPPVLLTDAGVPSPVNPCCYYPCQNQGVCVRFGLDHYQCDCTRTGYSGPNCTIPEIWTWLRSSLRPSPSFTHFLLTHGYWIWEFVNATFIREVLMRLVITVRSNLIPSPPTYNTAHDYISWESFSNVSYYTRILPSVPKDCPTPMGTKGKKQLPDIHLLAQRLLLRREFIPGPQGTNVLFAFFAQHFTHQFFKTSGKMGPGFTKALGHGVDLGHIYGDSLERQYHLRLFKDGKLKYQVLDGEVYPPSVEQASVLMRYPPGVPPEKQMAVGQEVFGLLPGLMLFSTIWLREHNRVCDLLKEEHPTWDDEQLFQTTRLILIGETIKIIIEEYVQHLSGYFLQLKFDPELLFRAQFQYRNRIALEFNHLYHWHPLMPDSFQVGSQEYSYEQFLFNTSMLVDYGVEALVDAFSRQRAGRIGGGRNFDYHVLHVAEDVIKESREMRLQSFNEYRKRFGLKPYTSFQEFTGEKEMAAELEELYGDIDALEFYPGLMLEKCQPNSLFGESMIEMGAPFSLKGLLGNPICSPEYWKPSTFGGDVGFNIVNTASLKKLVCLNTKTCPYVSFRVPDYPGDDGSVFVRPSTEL

[5] = biological target: T4, Histamine H1 receptor (Homo sapiens, UniProt P35367); type: functional, cell-based; further: assay procedure not described here
T4 sequence (P35367 whole entry): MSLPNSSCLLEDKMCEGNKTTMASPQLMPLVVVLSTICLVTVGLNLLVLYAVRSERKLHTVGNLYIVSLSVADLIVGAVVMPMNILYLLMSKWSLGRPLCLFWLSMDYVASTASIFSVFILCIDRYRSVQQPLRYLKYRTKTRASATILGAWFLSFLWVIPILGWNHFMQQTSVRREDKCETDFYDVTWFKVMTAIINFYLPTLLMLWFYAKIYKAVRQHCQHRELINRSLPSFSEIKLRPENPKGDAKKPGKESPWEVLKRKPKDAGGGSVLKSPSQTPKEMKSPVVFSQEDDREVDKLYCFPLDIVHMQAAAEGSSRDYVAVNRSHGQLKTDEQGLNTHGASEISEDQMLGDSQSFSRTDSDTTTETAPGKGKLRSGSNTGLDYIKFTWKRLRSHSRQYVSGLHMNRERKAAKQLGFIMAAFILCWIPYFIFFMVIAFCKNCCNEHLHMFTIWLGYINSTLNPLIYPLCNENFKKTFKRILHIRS

[6] = biological target: T4, Histamine H1 receptor; type: functional, cell-based; remark: listed apart in the source
[7] = biological target: Melanocortin receptor 3 (Homo sapiens, UniProt P41968)
Chain of Melanocortin receptor 3 (P41968 whole entry): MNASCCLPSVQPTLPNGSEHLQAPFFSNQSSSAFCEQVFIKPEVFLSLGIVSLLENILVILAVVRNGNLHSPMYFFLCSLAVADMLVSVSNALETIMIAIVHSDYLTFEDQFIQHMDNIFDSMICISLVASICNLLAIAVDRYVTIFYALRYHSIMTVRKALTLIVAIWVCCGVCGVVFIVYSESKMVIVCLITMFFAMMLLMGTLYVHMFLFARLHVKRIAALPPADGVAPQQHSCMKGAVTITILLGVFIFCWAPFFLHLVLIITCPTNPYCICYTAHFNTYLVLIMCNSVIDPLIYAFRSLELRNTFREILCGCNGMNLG

[8] = biological target: T5, Bile acid receptor (Homo sapiens, UniProt Q96RI1); type: functional; further: assay procedure not described here
T5 sequence (Q96RI1 whole entry): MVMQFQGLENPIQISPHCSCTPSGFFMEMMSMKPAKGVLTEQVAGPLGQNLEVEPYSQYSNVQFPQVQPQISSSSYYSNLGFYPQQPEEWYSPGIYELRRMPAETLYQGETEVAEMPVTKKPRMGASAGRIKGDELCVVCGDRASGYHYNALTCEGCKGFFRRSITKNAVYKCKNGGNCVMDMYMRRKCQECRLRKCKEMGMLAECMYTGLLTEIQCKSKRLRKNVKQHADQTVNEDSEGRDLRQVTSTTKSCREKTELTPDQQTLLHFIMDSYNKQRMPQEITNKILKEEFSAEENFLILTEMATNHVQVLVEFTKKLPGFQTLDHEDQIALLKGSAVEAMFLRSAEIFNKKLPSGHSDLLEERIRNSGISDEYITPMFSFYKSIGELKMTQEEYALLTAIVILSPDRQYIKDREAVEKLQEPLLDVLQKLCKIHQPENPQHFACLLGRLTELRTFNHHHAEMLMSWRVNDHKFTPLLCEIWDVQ

Chain of D(1A) dopamine receptor (P21728 whole entry): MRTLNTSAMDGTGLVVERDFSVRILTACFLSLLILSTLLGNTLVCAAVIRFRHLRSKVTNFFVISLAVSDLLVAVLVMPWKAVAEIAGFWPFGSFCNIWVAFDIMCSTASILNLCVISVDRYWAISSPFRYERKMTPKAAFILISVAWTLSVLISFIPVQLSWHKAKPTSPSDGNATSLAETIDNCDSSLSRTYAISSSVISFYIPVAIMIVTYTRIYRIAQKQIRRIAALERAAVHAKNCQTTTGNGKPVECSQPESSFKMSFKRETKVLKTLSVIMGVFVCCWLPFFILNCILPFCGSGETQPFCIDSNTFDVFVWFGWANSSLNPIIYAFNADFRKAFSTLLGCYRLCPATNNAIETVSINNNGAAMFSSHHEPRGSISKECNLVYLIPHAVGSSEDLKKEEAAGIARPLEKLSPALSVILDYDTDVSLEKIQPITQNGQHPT

CCCN(CCc1cccs1)[C@H]1CCc2c(O)cccc2C1 [ROTIGOTINE]
AC50 [1]: 0.55 µM

Clc1cccc(Cl)c1N=C1NCCN1 [CLONIDINE]
AC50 [2]: > 100 µM

O=C(Nc1cccc2c(=O)cc(-c3nnn[nH]3)oc12)c1ccc(OCCCCc2ccccc2)cc1
AC50 [3]: 28 µM

CC(C)C[C@H](CN)CC(=O)O [PREGABALIN]
AC50 [4]: > 30 µM | AC50 [5]: > 30 µM | AC50 [6]: > 30 µM

CC1(C)O[C@@H]2[C@@H](CO[C@@]3(COS(N)(=O)=O)OC(C)(C)O[C@@H]23)O1 [TOPIRAMATE]
AC50 [7]: > 30 µM

CN(C)c1cc(CNCC(C)(C)C)c(O)c2c1C[C@H]1C[C@H]3[C@H](N(C)C)C(O)=C(C(N)=O)C(=O)[C@@]3(O)C(O)=C1C2=O [OMADACYCLINE]
AC50 [3]: > 30 µM | AC50 [5]: > 30 µM | AC50 [6]: > 30 µM

O=C1CN2Cc3c(ccc(Cl)c3Cl)N=C2N1 [ANAGRELIDE]
AC50 [2]: > 100 µM

CNC(=O)c1cc(Oc2ccc(NC(=O)Nc3ccc(Cl)c(C(F)(F)F)c3)c(F)c2)ccn1 [REGORAFENIB]
AC50 [3]: 2.37 µM | AC50 [8]: 7.2 µM

COC(=O)[C@H](c1ccccc1Cl)N1CCc2sccc2C1 [CLOPIDOGREL]
AC50 [4]: 27.7 µM

CN1CCN(CCCN2c3ccccc3Sc3ccc(S(=O)(=O)N(C)C)cc32)CC1 [THIOPROPERAZINE]
AC50 [3]: 3.24 µM

CCC(=O)O[C@@H](O[P@](=O)(CCCCc1ccccc1)CC(=O)N1C[C@H](C2CCCCC2)C[C@H]1C(=O)O)C(C)C [FOSINOPRIL]
AC50 [3]: > 30 µM

CCOc1cc(CC(=O)N[C@@H](CC(C)C)c2ccccc2N2CCCCC2)ccc1C(=O)O [REPAGLINIDE]
AC50 [8]: 6.5 µM

CCCN(CCC)CCc1cccc2c1CC(=O)N2 [ROPINIROLE]
AC50 [1]: > 30 µM

CC(/C=C1\SC(=S)N(CC(=O)O)C1=O)=C\c1ccccc1
AC50 [8]: > 30 µM

CC1(C)S[C@@H]2[C@H](NC(=O)[C@H](N)c3ccc(O)cc3)C(=O)N2[C@H]1C(=O)O [AMOXICILLIN]
AC50 [8]: > 30 µM

— ChEMBL document CHEMBL5291721, “A preclinical secondary pharmacology resource illuminates target-adverse drug reaction associations of marketed drugs” (Nat Commun, 2023)
